Test results taken from ChEMBL document CHEMBL5727678, “CARM1 inhibitors and uses thereof” (2020).

Test: Enzyme Assay: The assays were all performed in a buffer consisting of 20 mM Bicine (pH=7.6), 1 mM TCEP, 0.005% BSG, and 0.002% Tween 20, prepared on the day of use. Compounds in 100% DMSO (1 ul) were spotted into a polypropylene 384-well V-bottom plates using a Platemate Plus outfitted with a 384-channel head . DMSO (1 ul) was added to Columns 11, 12, 23, 24, rows A-H for the maximum signal control and 1 ul of SAH, a known product and inhibitor of CARM1, was added to columns 11, 12, 23, 24, rows I-P for the minimum signal control. A cocktail (40 ul) containing the CARM1 enzyme was added by Multidrop Combi. The compounds were allowed to incubate with CARM1 for 30 min at room temperature, then a cocktail (10 ul) containing 3H-SAM and peptide was added to initiate the reaction (final volume=51 ul). The final concentrations of the components were as follows: CARM1 was 0.25 nM, 3H-SAM was 30 nM, peptide was 250 nM, SAH in the minimum signal control wells was 1 mM, and the DMSO concentration was 2%. The assays were stopped by the addition of non-radiolabeled SAM (10 ul) to a final concentration of 300 uM, which dilutes the 3H-SAM to a level where its incorporation into the peptide substrate is no longer detectable. 50 ul of the reaction in the 384-well polypropylene plate was then transferred to a 384-well Flashplate and the biotinylated peptides were allowed to bind to the streptavidin surface for at least 1 hour before being washed once with 0.1% Tween20 in a Biotek ELx405 plate washer.

| Structure (SMILES) | IC50 [nM] |
| --- | --- |
| CNCC(O)COc1cccc(-c2nc(-c3c(C)noc3C)c(C)c(N3CCO[C@H](CNC)C3)n2)c1 (stereo partly drawn) | < 100 |
| CNCC(O)COc1cccc(-c2nc(-c3c(C)noc3C)cc(N3C[C@@H]4C[C@H]3CN4C(=O)OC)n2)c1 (stereo partly drawn) | < 100 |
| CNC[C@@H](O)COc1ccc(Cl)c(-c2nc(-c3c(C)noc3C)c(C)c(N3Cc4c(C)nn(C)c4C3)n2)c1 | < 100 |
